Target: PD-L1 His protein / PD-1 Fc protein (Homo sapiens, UniProt Q9NZQ7)
Assay: HTRF Assay (PD-1/PD-L1 interaction)
Assay type: binding
Conditions: PD-L1 His 6 nM, PD-1 Fc 6 nM
Procedure: PD-L1 His protein was prepared and added at the final concentration of 6 nM in the White opaque 384 well plate (Corning cat #3824BC). PD-L1 small molecule inhibitors were diluted by 3-fold starting from 20 μM and a final concentration of 0.001 μM and added to the well. PD-1 Fc protein was added at the final concentration of 6 nM. PD-L1 His protein, PD-L1 small molecule inhibitors, and PD1 Fc proteins were added to the well in this order, with each 5 μl volume, and were incubated for 15 minutes at room temperature. PAb anti-Human IgG-XL665 (Cisbio, cat #61HFCXLA) and Mab anti-6HIS Tb cryptate Gold (Cisbio, cat #61HI2TLA) were mixed at 6.7 nM and 0.35 nM respectively, and total 5 μl volume of mixture was added to the well and incubated at room temperature for 1 hour. The plate was read using PerkinElmer Envision plate reader and data was analyzed by Prism 6 software.

PD-L1 His protein / PD-1 Fc protein, sequence (Q9NZQ7 19-238 limits assumed): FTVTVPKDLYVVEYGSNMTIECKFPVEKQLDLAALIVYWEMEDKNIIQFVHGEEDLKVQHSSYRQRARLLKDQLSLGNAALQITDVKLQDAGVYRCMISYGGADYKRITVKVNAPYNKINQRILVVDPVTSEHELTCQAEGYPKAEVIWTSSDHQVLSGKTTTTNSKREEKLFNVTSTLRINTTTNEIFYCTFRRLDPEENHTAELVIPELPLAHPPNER

First: COc1nc(-c2cccc(-c3cccc(-c4ccn5c(=O)c(CNC[C@H]6C[C@H]6CO)cnc5c4)c3Cl)c2Cl)ccc1CNC[C@@H]1CCC(=O)N1 [Example 408, 8-(2,2′-Dichloro-3′-(6-methoxy-5-(((((S)-5-oxopyrrolidin-2-yl)methyl)amino)methyl)pyridin-2-yl)-[1,1′-biphenyl]-3-yl)-3-(((((1S,2R)-2-(hydroxymethyl)cyclopropyl)methyl)amino)methyl)-4H-pyrido[1,2-a]pyrimidin-4-one]
Second: CNC(=O)CNCc1cnc2cc(-c3cccc(-c4cccc(-c5ccc(CNC[C@@H]6CCC(=O)N6)c(OC)n5)c4Cl)c3Cl)ccn2c1=O [Example 202, (S)-2-(((8-(2,2′-Dichloro-3′-(6-methoxy-5-((((5-oxopyrrolidin-2-yl)methyl)amino)methyl)pyridin-2-yl)-[1,1′-biphenyl]-3-yl)-4-oxo-4H-pyrido[1,2-a]pyrimidin-3-yl)methyl)amino)-N-methylacetamide]
The IC50 of the first is 11-fold higher: 1.1 nM for the first, 0.1 nM for the second. The second is the more potent here.

First: COc1nc(-c2cccc(-c3cccc(-c4ccn5c(=O)c(CN6CC(C(=O)O)C6)cnc5c4)c3Cl)c2Cl)cnc1CNC[C@@H]1CCC(=O)N1 [Example 117, (S)-1-((8-(2,2′-Dichloro-3′-(6-methoxy-5-((((5-oxopyrrolidin-2-yl)methyl)amino)methyl)pyrazin-2-yl)-[1,1′-biphenyl]-3-yl)-4-oxo-4H-pyrido[1,2-a]pyrimidin-3-yl)methyl)azetidine-3-carboxylic acid]
Second: COc1nc(-c2cccc(-c3cccc(-c4ccn5c(=O)c(CN6C[C@H](O)C[C@H]6C(=O)O)cnc5c4)c3Cl)c2Cl)ccc1CNC[C@@H]1CCC(=O)N1 [Example 166, (2S,4R)-1-((8-(2,2′-Dichloro-3′-(6-methoxy-5-(((((S)-5-oxopyrrolidin-2-yl)methyl)amino)methyl)pyridin-2-yl)-[1,1′-biphenyl]-3-yl)-4-oxo-4H-pyrido[1,2-a]pyrimidin-3-yl)methyl)-4-hydroxypyrrolidine-2-carboxylic acid]
The IC50 of the first is 4-fold higher: 0.4 nM for the first, 0.1 nM for the second. The second is the more potent here.

Going from `COc1nc(-c2cccc(-c3cccc(-c4ccn5c(=O)c(CNCC6NC(=O)CC6(C)C)cnc5c4)c3Cl)c2Cl)ccc1CNC[C@@H]1CCC(=O)N1` (stereo partly drawn) [Example 359, 8-(2,2′-dichloro-3′-(6-methoxy-5-(((((S)-5-oxopyrrolidin-2-yl)methyl)-amino)-methyl)-pyridin-2-yl)-[1,1′-biphenyl]-3-yl)-3-((((3,3-dimethyl-5-oxopyrrolidin-2-yl)methyl)amino)methyl)-4H-pyrido[1,2-a]pyrimidin-4-one] to `COc1nc(-c2cccc(-c3cccc(-c4ccn5c(=O)c(CNC[C@@H]6CCC(=O)N6)cnc5c4)c3Cl)c2Cl)ccc1CNCCNC(C)=O` [Example 103, (S)—N-(2-(((6-(2,2′-Dichloro-3′-(4-oxo-3-((((5-oxopyrrolidin-2-yl)methyl)amino)methyl)-4H-pyrido[1,2-a]pyrimidin-8-yl)-[1,1′-biphenyl]-3-yl)-2-methoxypyridin-3-yl)methyl)amino)ethyl)acetamide], the IC50 falls from 67 nM to 5 nM (13-fold).

First: COc1nc(-c2cccc(-c3cccc(-c4ccn5c(=O)c(CNC[C@H](C)O)c(C)nc5c4)c3Cl)c2Cl)ccc1CNC[C@@H]1CCC(=O)N1 [Example 193, 8-(2,2′-Dichloro-3′-(6-methoxy-5-(((((S)-5-oxopyrrolidin-2-yl)methyl)amino)methyl)pyridin-2-yl)-[1,1′-biphenyl]-3-yl)-3-((((S)-2-hydroxypropyl)amino)methyl)-2-methyl-4H-pyrido[1,2-a]pyrimidin-4-one]
Second: COc1nc(-c2cccc(-c3cccc(-c4ccc5nc(CNC[C@H](C)O)cc(=O)n5c4)c3Cl)c2Cl)ccc1CNC[C@@H]1CCC(=O)N1 [Example 324, 7-(2,2′-Dichloro-3′-(6-methoxy-5-(((((S)-5-oxopyrrolidin-2-yl)methyl)amino)methyl)pyridin-2-yl)-[1,1′-biphenyl]-3-yl)-2-((((S)-2-hydroxypropyl)amino)methyl)-4H-pyrido[1,2-a]pyrimidin-4-one]
The IC50 of the first is 57-fold lower: 0.1 nM for the first, 5.7 nM for the second.

Going from `COc1nc(-c2cccc(-c3cccc(-c4ccc5c(c4)CNCCN5C)c3Cl)c2Cl)ccc1CNC[C@@H]1CCC(=O)N1` [Example 363, (S)-5-((((6-(2,2′-Dichloro-3′-(1-methyl-2,3,4,5-tetrahydro-1H-benzo[e][1,4]diazepin-7-yl)-[1,1′-biphenyl]-3-yl)-2-methoxypyridin-3-yl)methyl)amino)methyl)pyrrolidin-2-one] to `COc1nc(-c2cccc(-c3cccc(-c4ccc5c(n4)OCCNC5)c3Cl)c2Cl)ccc1CNC[C@@H]1CCC(=O)N1` [Example 218, (S)-5-((((6-(2,2′-Dichloro-3′-(2,3,4,5-tetrahydropyrido[3,2-f][1,4]oxazepin-8-yl)-[1,1′-biphenyl]-3-yl)-2-methoxypyridin-3-yl)methyl)amino)methyl)887yrrolidine-2-one], the IC50 falls from 85 nM to 0.6 nM (140-fold).

Going from `Cn1cc(CNC[C@@H]2CCC(=O)N2)c2ccc(-c3cccc(-c4cccc(-c5ccn6c(=O)c(CNC[C@@H]7CCC(=O)N7)cnc6c5)c4Cl)c3Cl)nc21` [Example 416, 8-[2-Chloro-3-[2-chloro-3-[1-methyl-3-[[[(2S)-5-oxopyrrolidin-2-yl]methylamino]methyl]pyrrolo[2,3-b]pyridin-6-yl]phenyl]phenyl]-3-[[[(2S)-5-oxopyrrolidin-2-yl]methylamino]methyl]pyrido[1,2-a]pyrimidin-4-one] to `COc1nc(-c2cccc(-c3cccc(-c4ccn5c(=O)c(CNC[C@@H](O)CC(N)=O)cnc5c4)c3Cl)c2Cl)ccc1CNC[C@@H]1CCC(=O)N1` [Example 238, (3S)-4-[[8-[2-chloro-3-[2-chloro-3-[6-methoxy-5-[[[(2S)-5-oxopyrrolidin-2-yl]methylamino]methyl]-2-pyridyl]phenyl]phenyl]-4-oxo-pyrido[1,2-a]pyrimidin-3-yl]methylamino]-3-hydroxy-butanamide], the IC50 falls from 71 nM to 0.1 nM (710-fold).

`Cc1c(COc2cc(OCc3cncc(C#N)c3)c(CNCCO)cc2Cl)cccc1-c1cccc(-c2ccc3c(c2)C(=O)N(C)CC(=O)N3CCNCCO)c1C` [Example 8, 5-((4-Chloro-5-((3′-(1-(2-((2-hydroxyethyl)amino)ethyl)-4-methyl-2,5-dioxo-2,3,4,5-tetrahydro-1H-benzo[e][1,4]diazepin-7-yl)-2,2′-dimethyl-[1,1′-biphenyl]-3-yl)methoxy)-2-(((2-hydroxyethyl)amino)methyl)phenoxy)methyl)nicotinonitrile] and `CNC(=O)[C@H](C)N(C)Cc1cnc2cc(-c3cccc(-c4cccc(-c5ccc(CNC[C@@H]6CCC(=O)N6)c(OC)n5)c4Cl)c3Cl)ccn2c1=O` [Example 263, (S)-2-(((8-(2,2′-dichloro-3′-(6-methoxy-5-(((((S)-5-oxopyrrolidin-2-yl)methyl)amino)methyl)pyridin-2-yl)-[1,1′-biphenyl]-3-yl)-4-oxo-4H-pyrido[1,2-a]pyrimidin-3-yl)methyl)(methyl)amino)-N-methylpropanamide] are within 1.5-fold of each other in IC50: 0.8 nM for the first, 0.6 nM for the second.

`COc1nc(-c2cccc(-c3cccc(-c4ccn5c(=O)c(CNC[C@@H]6CCC(=O)N6)cnc5c4)c3Cl)c2Cl)ccc1C1=NCCC(C(=O)O)N1` (mixture of isomers) [Example 180, 2-(6-(2,2′-Dichloro-3′-(4-oxo-3-(((((S)-5-oxopyrrolidin-2-yl)methyl)amino)methyl)-4H-pyrido[1,2-a]pyrimidin-8-yl)-[1,1′-biphenyl]-3-yl)-2-methoxypyridin-3-yl)-3,4,5,6-tetrahydropyrimidine-4-carboxylic acid] showed an IC50 of 0.9 nM.
